Calls of active or inactive are those of the source. No cut-off for these calls is given here.
Columns and labels:
[1] = tested on: HCT-116; assay: Antiproliferative activity against human HCT116 cells overexpressing FAK assessed as reduction in cell viability after 72 hrs by MTS assay; settings: HCT-116, 72 h
[2] = tested on: PC-3; assay: Antiproliferative activity against human PC3 cells overexpressing FAK assessed as reduction in cell viability after 72 hrs by MTS assay; settings: PC-3, 72 h
[3] = tested on: U-87 MG; assay: Antiproliferative activity against human U87MG cells overexpressing FAK assessed as reduction in cell viability after 72 hrs by MTS assay
[4] = tested on: MCF7; assay: Antiproliferative activity against human MCF7 cells overexpressing FAK assessed as reduction in cell viability after 72 hrs by MTS assay; settings: MCF7, 72 h
[5] = tested on: HCT-116; assay: Induction of cell cycle arrest in human HCT116 cells assessed as accumulation at G0/G1 phase at 0.005 uM after 24 hrs by 7-AAD staining-based flow cytometric analysis (reference value: 50.53%); assay type: functional
[6] = tested on: HCT-116; assay: Induction of cell cycle arrest in human HCT116 cells assessed as accumulation at G2/M phase at 0.005 uM after 24 hrs by 7-AAD staining-based flow cytometric analysis (reference value: 12.26%); assay type: functional
[7] = tested on: HCT-116; assay: Induction of cell cycle arrest in human HCT116 cells assessed as accumulation at S phase at 0.005 uM after 24 hrs by 7-AAD staining-based flow cytometric analysis (reference value: 37.20%); assay type: functional
[8] = tested on: HCT-116; assay: Induction of cell cycle arrest in human HCT116 cells assessed as accumulation at G0/G1 phase at 0.05 uM after 24 hrs by 7-AAD staining-based flow cytometric analysis (reference value: 50.53%); assay type: functional
[9] = tested on: HCT-116; assay: Induction of cell cycle arrest in human HCT116 cells assessed as accumulation at S phase at 0.05 uM after 24 hrs by 7-AAD staining-based flow cytometric analysis (reference value: 37.20%); assay type: functional
[10] = tested on: HCT-116; assay: Induction of cell cycle arrest in human HCT116 cells assessed as accumulation at G2/M phase at 0.1 uM after 24 hrs by 7-AAD staining-based flow cytometric analysis (reference value: 12.26%); assay type: functional
[11] = tested on: HCT-116; assay: Induction of cell cycle arrest in human HCT116 cells assessed as accumulation at S phase at 0.1 uM after 24 hrs by 7-AAD staining-based flow cytometric analysis (reference value: 37.20%); assay type: functional
[12] = tested on: MCF7; assay: Induction of cell cycle arrest in human MCF7 cells assessed as accumulation at G2/M phase at 0.005 uM after 24 hrs by 7-AAD staining-based flow cytometric analysis (reference value: 11.48%); assay type: functional
[13] = tested on: MCF7; assay: Induction of cell cycle arrest in human MCF7 cells assessed as accumulation at S phase at 0.005 uM after 24 hrs by 7-AAD staining-based flow cytometric analysis (reference value: 26.07%); assay type: functional
[14] = tested on: MCF7; assay: Induction of cell cycle arrest in human MCF7 cells assessed as accumulation at S phase at 0.05 uM after 24 hrs by 7-AAD staining-based flow cytometric analysis (reference value: 26.07%); assay type: functional
[15] = tested on: MCF7; assay: Induction of cell cycle arrest in human MCF7 cells assessed as accumulation at G0/G1 phase at 0.01 uM after 24 hrs by 7-AAD staining-based flow cytometric analysis (reference value: 62.45%); assay type: functional
[16] = tested on: MCF7; assay: Induction of cell cycle arrest in human MCF7 cells assessed as accumulation at G2/M phase at 0.01 uM after 24 hrs by 7-AAD staining-based flow cytometric analysis (reference value: 11.48%); assay type: functional
[17] = tested on: HCT-116; assay: Induction of cell cycle arrest in human HCT116 cells assessed as increase in accumulation at G2/M phase after 24 hrs by 7-AAD staining-based flow cytometric analysis; assay type: functional
[18] = tested on: MCF7; assay: Induction of apoptosis in human MCF7 cells assessed as viable cells at 0.005 uM after 24 hrs by Annexin-V and 7-AAD staining based flow cytometric analysis (reference value: 90.2%); assay type: functional; settings: MCF7, 24 h, read-out: Activity
[19] = tested on: MCF7; assay: Induction of apoptosis in human MCF7 cells assessed as late apoptotic cells at 0.005 uM after 24 hrs by Annexin-V and 7-AAD staining based flow cytometric analysis (reference value: 7.63%); assay type: functional
[20] = tested on: MCF7; assay: Induction of apoptosis in human MCF7 cells assessed as late apoptotic cells at 0.01 uM after 24 hrs by Annexin-V and 7-AAD staining based flow cytometric analysis (reference value: 7.63%); assay type: functional
[21] = tested on: MCF7; assay: Induction of apoptosis in human MCF7 cells assessed as necrotic cells at 0.01 uM after 24 hrs by Annexin-V and 7-AAD staining based flow cytometric analysis (reference value: 0.16%); assay type: functional
[22] = tested on: MCF7; assay: Induction of apoptosis in human MCF7 cells assessed as viable cells at 0.05 uM after 24 hrs by Annexin-V and 7-AAD staining based flow cytometric analysis (reference value: 90.2%); assay type: functional; settings: MCF7, 24 h, read-out: Activity
[23] = tested on: MCF7; assay: Induction of apoptosis in human MCF7 cells assessed as early apoptotic cells at 0.05 uM after 24 hrs by Annexin-V and 7-AAD staining based flow cytometric analysis (reference value: 2.04%); assay type: functional
[24] = tested on: MCF7; assay: Induction of apoptosis in human MCF7 cells assessed as necrotic cells at 0.05 uM after 24 hrs by Annexin-V and 7-AAD staining based flow cytometric analysis (reference value: 0.16%); assay type: functional
[25] = tested on: HCT-116; assay: Induction of apoptosis in human HCT116 cells assessed as viable cells at 0.005 uM after 24 hrs by Annexin-V and 7-AAD staining based flow cytometric analysis (reference value: 88.6%); assay type: functional; settings: HCT-116, 24 h, read-out: Activity
[26] = tested on: HCT-116; assay: Induction of apoptosis in human HCT116 cells assessed as early apoptotic cells at 0.005 uM after 24 hrs by Annexin-V and 7-AAD staining based flow cytometric analysis (reference value: 8.11%); assay type: functional
[27] = tested on: HCT-116; assay: Induction of apoptosis in human HCT116 cells assessed as late apoptotic cells at 0.005 uM after 24 hrs by Annexin-V and 7-AAD staining based flow cytometric analysis (reference value: 2.63%); assay type: functional
[28] = tested on: HCT-116; assay: Induction of apoptosis in human HCT116 cells assessed as early apoptotic cells at 0.1 uM after 24 hrs by Annexin-V and 7-AAD staining based flow cytometric analysis ((reference value: 8.11%); assay type: functional
[29] = tested on: HCT-116; assay: Induction of apoptosis in human HCT116 cells assessed as necrotic cells at 0.1 uM after 24 hrs by Annexin-V and 7-AAD staining based flow cytometric analysis (reference value: 0.68%); assay type: functional
[30] = tested on: HCT-116; assay: Induction of apoptosis in human HCT116 cells assessed as early apoptotic cells at 0.05 uM after 24 hrs by Annexin-V and 7-AAD staining based flow cytometric analysis (reference value: 8.11%); assay type: functional
[31] = tested on: HCT-116; assay: Induction of apoptosis in human HCT116 cells assessed as necrotic cells at 0.05 uM after 24 hrs by Annexin-V and 7-AAD staining based flow cytometric analysis (reference value: 0.68%); assay type: functional
[32] = organism: Homo sapiens; assay: Induction of apoptosis in human […] after 24 hrs by Annexin-V and 7-AAD staining based flow cytometric analysis; assay type: functional, cell-based
[33] = organism: Homo sapiens; settings: 0.05 to 0.1 uM
Description: Antimigratory activity against human MCF7 cells assessed as reduction in cell migration at 0.05 to 0.1 uM incubated for 30 mins and measured after 24 hrs by crystal violet staining based inverted microscopic analysis

Work on CNC(=O)c1ccccc1Nc1nc(Nc2ccc(C(=O)N3CCN(C(=S)SCCN(C)C)CC3)cc2)ncc1C(F)(F)F yielded an IC50 [1] of 1 nM, an IC50 [2] of 30 nM and an IC50 [3] of 60 nM. For the same compound, the IC50 [4] was 20 nM, the Activity [5] was 39.76% and the Activity [6] was 18.38%. For the same compound, the Activity [7] was 41.86%, the Activity [8] was 3.4% and the Activity [9] was 9.05%. For the same compound, the Activity [10] was 90.46%, the Activity [11] was 4.4% and the Activity [12] was 36.67%. It also gave an Activity [13] of 21.4%, an Activity [14] of 7.2% and an Activity [15] of 9.52%. The Activity [16] was 81.73%, the Activity [17] was “Dose-dependent effect” and the viability at 0.005 µM [18] was 74.2%. The Activity [19] was 16.5%, the Activity [20] was 21.4% and the Activity [21] was 0.47%. For the same compound, the viability at 0.05 µM [22] was 60.1%, the Activity [23] was 13.7% and the Activity [24] was 0.56%. For the same compound, the viability at 0.005 µM [25] was 82.4%, the Activity [26] was 15.9% and the Activity [27] was 1.42%. For the same compound, the Activity [28] was 21.5%, the Activity [29] was 0% and the Activity [30] was 18.7%. For the same compound, the Activity [31] was 0.29%, the Activity [32] was “Dose-dependent effect” and the inhibition [33] was “Active”.

Reference: ChEMBL document CHEMBL4350989, “Discovery of 2,4-diarylaminopyrimidine derivatives bearing dithiocarbamate moiety as novel FAK inhibitors with antitumor and anti-angiogenesis activities” (Eur J Med Chem, 2019)
